How the values were obtained:
[1] = system: cultured rat mesencephalic cells; assay: TH immunochemistry after 100 μM NMDA exposure; settings: 50 μM; single sample; listed as Deprenyl
Description: Rat mesencephalic cell cultures were exposed to 100 μM NMDA and incubated as described above in connection with FIG. 16.

MAO-A [2] = biological target: T1, MAO-A (Rattus norvegicus, UniProt P21396); assay: Inhibition of MAO-A in rat cortex mitochondrial-rich fractions; settings: read-out: Percent Inhibition MAO-A
T1 sequence (P21396 1-526): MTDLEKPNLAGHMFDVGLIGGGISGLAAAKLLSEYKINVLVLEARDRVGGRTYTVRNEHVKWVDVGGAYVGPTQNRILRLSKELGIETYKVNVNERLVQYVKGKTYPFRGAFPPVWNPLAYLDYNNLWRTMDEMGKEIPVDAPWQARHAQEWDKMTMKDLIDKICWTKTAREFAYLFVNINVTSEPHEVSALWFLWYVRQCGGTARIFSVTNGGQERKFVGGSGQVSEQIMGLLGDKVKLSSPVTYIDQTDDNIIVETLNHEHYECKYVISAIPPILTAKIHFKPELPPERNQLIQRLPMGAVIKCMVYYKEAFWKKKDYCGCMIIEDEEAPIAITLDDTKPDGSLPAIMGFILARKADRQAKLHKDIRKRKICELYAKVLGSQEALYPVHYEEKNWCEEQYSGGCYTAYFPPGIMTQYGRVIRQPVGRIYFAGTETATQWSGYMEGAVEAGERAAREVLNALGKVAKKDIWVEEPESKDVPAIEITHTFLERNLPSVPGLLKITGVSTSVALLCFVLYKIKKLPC

MAO-A [3] = biological target: T2, MAO-A (Cavia porcellus, UniProt H0UVA2); assay: In vivo MAO-A inhibition in guinea pig cortex (hippocampus) after 5 s.c. treatments; settings: sc, read-out: inhibition of MAO-A activity
T2 sequence (H0UVA2 1-461): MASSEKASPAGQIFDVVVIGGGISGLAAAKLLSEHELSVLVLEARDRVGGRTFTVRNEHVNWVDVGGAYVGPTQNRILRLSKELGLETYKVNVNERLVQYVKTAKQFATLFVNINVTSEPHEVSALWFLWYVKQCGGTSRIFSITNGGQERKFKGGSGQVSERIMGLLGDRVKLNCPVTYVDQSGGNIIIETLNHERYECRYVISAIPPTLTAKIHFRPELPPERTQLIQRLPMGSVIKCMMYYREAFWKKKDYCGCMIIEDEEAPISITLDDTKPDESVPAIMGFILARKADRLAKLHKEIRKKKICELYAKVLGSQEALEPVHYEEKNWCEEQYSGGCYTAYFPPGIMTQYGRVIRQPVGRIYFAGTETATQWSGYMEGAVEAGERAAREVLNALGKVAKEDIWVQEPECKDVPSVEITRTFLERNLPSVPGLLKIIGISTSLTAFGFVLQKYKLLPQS
Description: Hippocampal homogenates containing enzyme were prepared, and assays in vitro for MAO-A and MAO-B activity.

[4] = system: rat embryonic mesencephalic cells; assay: [3H]dopamine uptake, medium change (glutamate receptor dependent) model of cell death; settings: 50 μM
Description: Preparations are then added to 10 ml Ecoscint (National Diagnostics) and counted in a scintillation spectrometer.
(§1) In these experiments, cells were plated and allowed to stabilize for several days.

[5] = system: rat embryonic mesencephalic cells; assay: TH positive cell survival, medium change (glutamate receptor dependent) model of cell death
Description: as §1

MAO-A [6] = biological target: T2, MAO-A; assay: MAO-A inhibition in guinea pig hippocampal homogenates in vitro; assay type: biochemical; parameters: specific substrates of MAO-A (^14C-serotonin) in guinea pig hippocampal homogenates; from tissue; host or cells: guinea pig hippocampal homogenates
Source text: Human platelet MAO is comprised exclusively of the type-B isoform of the enzyme. […] The present study also examined the two enantiomers of DMS for inhibitory activity with respect to the MAO-A and MAO-B in guinea pig hippocampal tissue. Guinea pig brain tissue is an excellent animal model for studying brain dopamine metabolism, the enzyme kinetics of the multiple forms of MAO and the inhibitory properties of novel agents that interact with these enzymes. The multiple forms of MAO in this animal species show similar kinetic properties to those found in human brain tissue. Finally, the test agents were administered to guinea pigs and the extent to which they might act as inhibitors of brain MAO in vivo was assessed.
In vitro: The test system utilized the in vitro conversion of specific substrates of MAO-A (^14C-serotonin) in guinea pig hippocampal homogenates or MAO-B (^14C-phenylethylamine) by human platelets and guinea pig hippocampal homogenates. […] A percent inhibition was calculated from these values.

## C#CCN(C)[C@H](C)Cc1ccccc1 [Selegiline, (R)-N-α-dimethyl-N-2-propynylbenzeethanamine, reference compound]
[1]
  TH positive cells, cells/cm^2: 230 cells/cm^2
MAO-A [2]
  inhibition at 0.03 µM: 0%
MAO-A [3]
  inhibition at 1 mg/kg: 36.1%
[4]
  neuron protection by measurement of dopamine uptake (FIG. 15): neuron protection
[5]; 50 μM, Mean, listed as Deprenyl
  TH positive cells, cells/cm^2: 344.2 cells/cm^2
[5]; 0.5, 5.0 or 50 μM, 4 days of daily medium changes
  survival of dopaminergic neurons (TH staining and tritiated dopamine uptake, FIGS. 11 and 12): promotes the survival of dopaminergic neurons
MAO-A [6]; Concentration 300 nM
  MAO-A % Reduction 0 ± SEM: 11.95 ± 2.4%
MAO-A [6]; Concentration 1 μM
  MAO-A % Reduction 0 ± SEM: 22.1 ± 1.2%
MAO-A [6]; Concentration 3 μM
  MAO-A % Reduction 0 ± SEM: 53.5 ± 2.7%
MAO-A [6]; figure in parentheses, times less potent
  reduction in potency compared to selegiline, MAO-A: 1

From patent US20060167110A1 (priority 1995, published 2006)
